What all share (type): cell-based
For assay [1], the target named is T1, GLUT1 (Homo sapiens, UniProt P11166).
T1 construct: host or cells: DLD-1 (DLD1) cells
T1 sequence (P11166 1-492): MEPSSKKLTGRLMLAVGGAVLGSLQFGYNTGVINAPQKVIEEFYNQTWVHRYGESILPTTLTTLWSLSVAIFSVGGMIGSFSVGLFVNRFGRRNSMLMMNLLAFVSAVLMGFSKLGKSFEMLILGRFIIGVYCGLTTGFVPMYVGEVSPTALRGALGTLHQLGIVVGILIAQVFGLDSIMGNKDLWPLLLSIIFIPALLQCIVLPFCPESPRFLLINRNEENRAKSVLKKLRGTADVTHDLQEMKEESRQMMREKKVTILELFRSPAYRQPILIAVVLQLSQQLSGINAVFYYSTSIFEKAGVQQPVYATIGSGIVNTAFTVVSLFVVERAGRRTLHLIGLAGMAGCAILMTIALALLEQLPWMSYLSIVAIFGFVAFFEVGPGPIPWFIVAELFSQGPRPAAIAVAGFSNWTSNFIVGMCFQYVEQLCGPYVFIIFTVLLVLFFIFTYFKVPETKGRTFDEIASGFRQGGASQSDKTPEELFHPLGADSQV
As to the kind of experiment: GLUT1 transporter activity assay (2-DG uptake) in DLD1 cells. As to conditions: DLD1 cell line; read-out: GLUT1 inhibitory activity (IC50). The text has this: (§1) GLUT 1, 2, 3 and 4 Transporter Activity Assays
(§2) Assays were based on the specificity assays reported by Kapoor et al., Proceedings of the National Academy of Sciences 2016, 113 (17) 4711-4716. For GLUT1, GLUT2, GLUT3 and GLUT4 specificity testing DLD1, CHO-hGLUT2, DLD-1-GLUT1−/− and CHO-hGLUT4 cell lines were used.
(§3) Assay protocols for 2-deoxy-Glucose (2-DG) Uptake Assay with DLD1 or DLD1-Glut1(−/−) cells or 7,000 CHOK1-SLC2A4 cells lines:
(§4) 14,000 DLD1 or DLD1-Glut1(−/−) cells or 7,000 CHOK1-SLC2A4 cells were seeded in black, clear bottom 384-well plates in glucose- and phenolred-free RPMI1640 medium supplemented with 1% FCS and 2 mM L-glutamine and allowed to attach overnight. Next day, cells were washed and incubated with compounds or DMSO and 1 mM 2-DG in glucose- and phenolred-free RPMI1640 medium for 30 min. Cells were then washed and lysed in 0.06 M HCl and 1% CHAPS for 15 min at 65° C. The amount of 2-DG in the lysate was determined by means of enzyme-coupled assay. For this 16 U/mL glucose-6-phosphate dehydrogenase, 0.2 U/mL diaphorase, 0.1 mM NADP^+ and 10 μM resazurin were added to the lysates. Resorufin fluorescence was determined as a measure of 2-DG uptake at ex/em 535/590 nm with a Victor Multilabel plate reader (Perkin Elmer). Blank values were subtracted from all readings and values were normalized to the DMSO control.

For assay [2], the target named is T2, GLUT3 (Homo sapiens, UniProt P11169).
T2 construct: host or cells: DLD-1-GLUT1(-/-) cells
T2 sequence (P11169 1-496): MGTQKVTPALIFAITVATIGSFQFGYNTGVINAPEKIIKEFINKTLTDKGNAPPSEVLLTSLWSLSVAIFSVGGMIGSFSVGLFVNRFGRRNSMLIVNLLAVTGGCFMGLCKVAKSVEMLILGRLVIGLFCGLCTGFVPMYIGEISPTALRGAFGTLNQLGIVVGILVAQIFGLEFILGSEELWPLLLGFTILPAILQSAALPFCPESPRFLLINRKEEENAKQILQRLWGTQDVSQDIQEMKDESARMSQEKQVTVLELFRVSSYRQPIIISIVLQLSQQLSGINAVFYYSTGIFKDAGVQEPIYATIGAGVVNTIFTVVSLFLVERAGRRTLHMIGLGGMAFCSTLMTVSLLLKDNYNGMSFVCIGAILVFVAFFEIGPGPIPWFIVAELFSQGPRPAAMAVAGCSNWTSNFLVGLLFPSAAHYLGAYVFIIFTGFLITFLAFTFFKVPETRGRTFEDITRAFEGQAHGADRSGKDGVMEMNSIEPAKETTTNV
As to the kind of experiment: GLUT3 transporter activity assay (2-DG uptake) in DLD-1-GLUT1-/- cells. The following applies: DLD-1-GLUT1-/- cell line; read-out: GLUT3 inhibitory activity (IC50).
Source text: as §1, §2, §3, §4

Assay [3] has as its target T3, GLUT4 (Homo sapiens, UniProt P14672).
T3 sequence (P14672 1-509): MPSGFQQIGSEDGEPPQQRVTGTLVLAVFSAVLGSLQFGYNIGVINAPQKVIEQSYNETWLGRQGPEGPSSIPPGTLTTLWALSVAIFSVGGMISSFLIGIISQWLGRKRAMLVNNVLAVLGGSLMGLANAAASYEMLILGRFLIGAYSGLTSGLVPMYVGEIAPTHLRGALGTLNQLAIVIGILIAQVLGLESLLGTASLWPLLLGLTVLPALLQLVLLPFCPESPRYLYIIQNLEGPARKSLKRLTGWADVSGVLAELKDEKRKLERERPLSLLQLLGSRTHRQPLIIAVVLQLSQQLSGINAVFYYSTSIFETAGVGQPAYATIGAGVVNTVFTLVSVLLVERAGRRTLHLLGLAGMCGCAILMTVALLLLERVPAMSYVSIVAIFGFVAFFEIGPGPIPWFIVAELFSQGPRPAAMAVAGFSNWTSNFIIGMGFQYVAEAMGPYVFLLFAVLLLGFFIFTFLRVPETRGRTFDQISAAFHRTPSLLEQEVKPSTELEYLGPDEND
As to the kind of experiment: GLUT4 transporter activity assay (2-DG uptake) in CHO-hGLUT4 cells. As to conditions: CHO-hGLUT4 cell line; read-out: GLUT4 inhibitory activity (IC50). On the procedure: CHOK1-SLC2A4 cells were generated by transfection of CHOK1 cells with pCMV6-Entry-GLUT4 (Origene #SC125240) using Lipofectamin2000 according to the supplier's instructions. Briefly, 1.5E5 cells/well CHOK1 cells were seeded in 6-well cell culture plates. After overnight incubation, DNA-lipid complexes (2 μg plasmid DNA, DNA:lipid ratio 1:10) were prepared in OptiMEM and then added to the cells. After 5 days incubation, 800 μg G418 was added to the culture medium to generate a stable polyclone. For monoclone selection, single cells were re-plated in 96-well plates, expanded and selected by transgene overexpression and functional performance.
as §1, §2, §3, §4

The subject of assay [4] is HCT116 cells. Briefly: 2-Deoxy-Glucose (2-DG) uptake assay in HCT116 cells. The following applies: Homo sapiens, HCT-116, 0.5 h, 1 mM 2-DG, 30 min, read-out: IC50 determined for the inhibition of 2-DG uptake in HCT116 cells. On the procedure:
The 2-DG uptake assay was carried out as described by Yamamoto N. et al. with slight modifications ([…]). Briefly, 40,000 HCT116 or CHO cells were seeded in black, clear bottom 96-well plates and allowed to attach overnight. Cells were incubated with compounds or DMSO and 1 mM 2-DG in glucose-free KRB buffer (20 mM HEPES, 5 mM KH2PO4, 1 mM MgSO4, 1 mM CaCl2), 136 mM NaCl, 0.1% BSA, pH 7.4) for 30 min. In the case of GLUT-4 transfected cells, Insulin (100 μg/mL) was added to the buffer. Cells were then washed and lysed in 0.06 M HCl and 1% CHAPS for 15 min at 65° C. while shaking. The amount of 2-DG in the lysate was determined by means of enzyme-coupled assay. For this 6.4 U/mL glucose-6-phosphate dehydrogenase, 0.2 U/mL diaphorase, 0.1 mM NADP^+ and 0.025 mg/mL resazurin were added to the lysates. Resorufin fluorescence was determined as a measure of 2-DG uptake at ex/em 535/590 nm with a Tecan Infinite M200 plate reader (Tecan). Blank values were subtracted from all readings and values were normalized to the DMSO control.

Assay [5] has as its target T4, GLUT2 (Homo sapiens, UniProt P11168).
T4 sequence (P11168 1-524): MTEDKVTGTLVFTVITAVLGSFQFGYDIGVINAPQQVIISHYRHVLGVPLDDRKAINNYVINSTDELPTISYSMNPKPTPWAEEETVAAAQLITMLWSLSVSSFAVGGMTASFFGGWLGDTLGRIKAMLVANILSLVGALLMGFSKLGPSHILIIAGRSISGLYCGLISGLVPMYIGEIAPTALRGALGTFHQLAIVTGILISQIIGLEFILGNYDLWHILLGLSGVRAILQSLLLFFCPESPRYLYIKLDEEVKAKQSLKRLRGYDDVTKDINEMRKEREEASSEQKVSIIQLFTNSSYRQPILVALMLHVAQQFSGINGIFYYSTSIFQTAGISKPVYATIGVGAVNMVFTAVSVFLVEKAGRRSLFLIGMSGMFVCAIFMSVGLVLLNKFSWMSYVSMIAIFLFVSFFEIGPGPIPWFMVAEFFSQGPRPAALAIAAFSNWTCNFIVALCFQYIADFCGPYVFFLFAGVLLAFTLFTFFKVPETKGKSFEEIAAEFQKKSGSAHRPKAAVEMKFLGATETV
Briefly: GLUT2 transporter activity assay in CHO-hGLUT2 cells (indirect, intracellular ATP levels). As to conditions: CHO-hGLUT2 cell line; read-out: GLUT2 inhibitory activity (IC50).
Source text: as §1, §2
Example 8-3: Indirect Measurement of GLUT2 (SLC2A2) Activity by Quantification of Intracellular ATP Levels
A combination of small-molecule inhibitors of mitochondrial electron transport chain and glucose catabolism synergistically suppress ATP production and impair cellular viability (Ulanovskaya et al., 2008, 2011; Liu, et al. 2001). We therefore used CHOK1 cells overexpressing SLC2A2 (CHOK1-SLC2A2) in combination with an oxidative phosphorylation inhibitor (Rotenon) to identify GLUT2 inhibitors. CHOK1-SLC2A2 cells were purchased from creative biogene (catNo: CSC-SC014484) and maintained in RPMI1640 supplemented with 10% FBS and 2 mM L-Glutamine. For the Glut2-ATP-Assay, 7,500 cells were seeded in black, clear bottom 384-well plates directly in glucose- and phenolred-free RPMI1640 medium supplemented with 1% FCS and 2 mM L-glutamine and cultured overnight to reduce intracellular ATP levels. Next day, cells were washed and incubated with […] and compounds or DMSO and 2.5 mM fructose in glucose- and phenolred-free RPMI1640 medium for 40 min. The CellTiter-Glo® Luminescence Viability Assay from Promega was used to measure ATP levels. Luminescence was measured with a Victor Multilabel plate reader (Perkin Elmer). Blank values were subtracted from all readings and values were normalized to the DMSO control.

The text below walks through data of patent US20210198269A1, “INHIBITORS OF GLUCOSE TRANSPORTERS (GLUTs)” (LEAD DISCOVERY CENTER GMBH, priority 2018, published 2021).

`Cc1ccc(CCNC(=O)c2cccc(N3C(=O)NC4CC3(C)Oc3c(OCc5cccc(Cl)c5)cccc34)c2)cc1` (stereo not drawn) [Compound A04, 3-(10-((3-Chlorobenzyl)oxy)-2-methyl-4-oxo-5,6-dihydro-2H-2,6-methanobenzo[g][1,3,5]oxadiazocin-3(4H)-yl)-N-(4-methylphenethyl)benzamide]: the IC50 (commonly the point on the concentration scale where inhibition reaches its midpoint) in assay [1] is 300 to 1000 nM; in assay [2] it was 300 to 1000 nM; in assay [3] it was over 25000 nM; in assay [4], at most 5000 nM.

For the compound `Cc1ccc(CCNC(=O)c2cccc(N3C(=O)NC4CC3(C)Oc3c(OCc5ccco5)cccc34)c2)cc1` (stereo not drawn) [Compound A07, 3-(10-(Furan-2-ylmethoxy)-2-methyl-4-oxo-5,6-dihydro-2H-2,6-methanobenzo[g][1,3,5]oxadiazocin-3(4H)-yl)-N-(4-methylphenethyl)benzamide], the IC50 in assay [1] is 300 to 1000 nM; in assay [2], 300 to 1000 nM; in assay [3] it was 4000 to 10000 nM; in assay [4] it was at most 5000 nM.

Consider `Cc1ccc(CCNC(=O)c2cccc(N3C(=O)NC4CC3(C)Oc3c(OCc5ccc(C(C)(C)C)cc5)cccc34)c2)cc1` (stereo not drawn) [Compound A06, 3-(10-((4-(tert-Butyl)benzyl)oxy)-2-methyl-4-oxo-5,6-dihydro-2H-2,6-methanobenzo[g][1,3,5]oxadiazocin-3(4H)-yl)-N-(4-methylphenethyl)benzamide], for which the IC50 in assay [4] was at most 5000 nM.

Turning to `Cc1ccc(CCNC(=O)c2cccc(N3C(=O)NC4CC3(C)Oc3c(OCc5ccc(C#N)cc5)cccc34)c2)cc1` (stereo not drawn) [Compound A05, 3-(10-((4-Cyanobenzyl)oxy)-2-methyl-4-oxo-5,6-dihydro-2H-2,6-methanobenzo[g][1,3,5]oxadiazocin-3(4H)-yl)-N-(4-methylphenethyl)benzamide], the half-inhibitory concentration (IC50) in assay [1] is at most 300 nM; in assay [2], at most 300 nM; in assay [3], 4000 to 10000 nM; in assay [4] it was at most 5000 nM.

For the compound `CC12CC(NC(=O)N1c1cccc(C(=O)NCCCc3ccccc3)c1)c1cccc(OCc3ccccc3)c1O2` (stereo not drawn) [Compound A33, 3-(10-(benzyloxy)-2-methyl-4-oxo-5,6-dihydro-2H-2,6-methanobenzo[g][1,3,5]oxadiazocin-3(4H)-yl)-N-(3-phenylpropyl)benzamide], the concentration for half-maximal inhibition (IC50) is 300 to 1000 nM in assay [1], over 25000 nM in assay [5], 300 to 1000 nM in assay [2] and 1000 to 4000 nM in assay [3].

As for `COC(=O)c1cccc(N2C(=O)NC3CC2(C)Oc2c(OCc4ccccc4)cccc23)c1` (stereo not drawn) [Compound A37, methyl 3-(10-(benzyloxy)-2-methyl-4-oxo-5,6-dihydro-2H-2,6-methanobenzo[g][1,3,5]oxadiazocin-3(4H)-yl)benzoate], the 50% inhibitory concentration (IC50) in assay [1] was 1000 to 4000 nM; in assay [5] it was over 25000 nM; in assay [2], 1000 to 4000 nM; in assay [3], 10000 to 25000 nM.
